Data on 5 molecules can be found in PMC8191813 (Antiviral research, 2017).

One series concerns wild-type CCHFV. The experiment in a line: microbe, parasite or virus in culture. The format is cell-based, Crimean-Congo hemorrhagic fever virus. Particulars: for EC50: Orthonairovirus haemorrhagiae, Huh-7, read-out: EC50 CCHFV.
The nature of the next series: in vitro. As to conditions: human.
The subject of series [1] is CCHFV/ZsG. The experiment in a line: microbe, parasite or virus in culture. In kind it is cell-based, Crimean-Congo hemorrhagic fever virus.
Series [2] deals with CCHFV/ZsG. Put plainly: microbe, parasite or virus in culture. The format is cell-based, Crimean-Congo hemorrhagic fever virus. As to conditions: Orthonairovirus haemorrhagiae, SW13, read-out: EC50 CCHFV/ZsG.
The subject of a further series is CCHFV. Particulars: read-out: previously reported EC50; cited from earlier work.
For another series, the system named is rats. Particulars: rat, in vivo; cited from earlier work.
The next series has as its system woodchucks. As to conditions: in vivo; cited from earlier work.
The next series deals with CCHF. As to conditions: in vivo; cited from earlier work.
The mark [3] stands for this setting: Orthonairovirus haemorrhagiae, Huh-7, read-out: EC50 CCHFV/ZsG.

Like-named read-outs stand apart in the source and are kept apart here.

Usually viability stands for a read-out of living cells in per cent, often relative to untreated cells. A lower viability goes with more harm to the cells.

As for `COc1c(C)c2c(c(O)c1C/C=C(\C)CCC(=O)O)C(=O)OC2` [Mycophenolic acid, mycophenolic acid], in the series with wild-type CCHFV, the “selectivity index (SI) CCHFV” value is given as 0.19 (9) and the EC50 amounted to 190 nM. The CC50 in “in vitro” came to 1.78 ± 0.25 µM. In addition, the “selectivity index (SI) CCHFV/ZsG” value with CCHFV/ZsG [1] is 0.10 ± 0.01 (18). The EC50 in the series on CCHFV/ZsG [1] (setting [3]) came out at 100 nM.

The molecule `COc1c(C)c2c(c(O)c1C/C=C(\C)CCC(=O)OCCN1CCOCC1)C(=O)OC2` [MMF, mycophenolate mofetil] displayed a viability in “in vitro” of over 80%. In addition, in the series on CCHFV/ZsG [1], the “ZsG fluorescence in initial screen” value is < 30 % of control. The EC50 in the series on CCHFV/ZsG [1] (setting [3]) stood at 390 ± 130 nM.

With `NC(=O)c1ncn([C@@H]2O[C@H](CO)[C@@H](O)[C@H]2O)n1` [Ribavirin, ribavirin], in the series on wild-type CCHFV, the “selectivity index (SI) CCHFV” value was 5.69 (> 26). Also, in the series with wild-type CCHFV, the “virus detection at the highest concentration of compound tested” value (“virus detection” below) was “no virus detected”. In addition, the EC50 is 5690 nM in the series on wild-type CCHFV; 5.69 ± 0.71 µM in the series on CCHFV/ZsG [2]; 12500 ± 2600 nM with CCHFV/ZsG [1] (setting [3]); 12500 nM in the series with CCHFV/ZsG [1] (read-out: EC50 CCHFV/ZsG); 11.5 µM in the series with CCHFV. The CC50 in “in vitro” is over 150 µM. The “selectivity index (SI) CCHFV/ZsG” value in the series with CCHFV/ZsG [1] was 12.48 ± 2.61 (> 10).

For the molecule `Nc1ccn([C@@H]2O[C@H](CO)[C@@H](O)[C@H]2F)c(=O)n1` [2′-dFC, 2′-deoxy-2′-fluorocytidine], in the series on wild-type CCHFV, the “CCHFV titer reduction compared to DMSO only-treated control” value is given as “approximately 2 logs”, the “selectivity index (SI) CCHFV” value is recorded as 0.031 (> 1613), the “virus detection” value is “no virus detected” and the EC50 was determined as 31 nM. For the same molecule, in the series on rats, the adverse clinical effects result is listed as “no adverse clinical effects”. For the same molecule, the “cytotoxicity, result in words” value in the series with SW13 cells is on record as “no associated cytotoxicity”. In “in vitro”, the CC50 is over 50 µM and the viability was over 80%. Also, the adverse clinical effects entry in the series with woodchucks was “no adverse clinical effects”. Besides, the “cytotoxicity, result in words” value with Huh7 cells is listed as “no cytotoxicity”. Besides, in the series with CCHFV/ZsG [1], the “ZsG fluorescence in initial screen” value is given as < 30 % of control, the “potency relative to T-705” value was 17 ×, the “potency relative to ribavirin” value came out at 200 × and the “selectivity index (SI) CCHFV/ZsG” value is 0.061 ± 0.018 (> 820). Besides, in the series on CCHFV/ZsG [1] (setting [3]), the EC50 was 61 nM.

Turning to `NC(=O)c1nc(F)c[nH]c1=O` [T-705, favipiravir], in the series with wild-type CCHFV, the “CCHFV titer reduction compared to DMSO only-treated control” value was “approximately 2 logs”, the “selectivity index (SI) CCHFV” value is recorded as 0.88 (> 57), the “virus detection” value is “no virus detected” and the EC50 was found to be 880 nM. In “in vitro”, this molecule displayed a CC50 of over 50 µM and a viability of over 80%. Moreover, the “efficacy in mouse model of CCHF” value in the series on CCHF is “higher efficacy than ribavirin”. For the same molecule, in the series with CCHFV/ZsG [1], the “ZsG fluorescence in initial screen” value is on record as < 30 % of control and the “selectivity index (SI) CCHFV/ZsG” value was 1.03 ± 0.16 (> 50). Also, the EC50 in the series on CCHFV/ZsG [1] (setting [3]) worked out at 1030 nM. Moreover, in the series on CCHFV, the EC50 was 7 µM.
